In ChEMBL document CHEMBL4359819, “Exploiting the 1-(4-fluorobenzyl)piperazine fragment for the development of novel tyrosinase inhibitors as anti-melanogenic agents: Design, synthesis, structural insights and biological profile” (Eur J Med Chem, 2019) one finds IC50, inhibition and Ratio IC50 data, which are given here for 24 compounds.

Activity calls are given as the source filed them. The calls are words filed in the database; no cut-off is given here.

The target of one assay is T1, Tyrosinase (Agaricus bisporus, UniProt O42713).
T1 sequence (O42713 whole entry): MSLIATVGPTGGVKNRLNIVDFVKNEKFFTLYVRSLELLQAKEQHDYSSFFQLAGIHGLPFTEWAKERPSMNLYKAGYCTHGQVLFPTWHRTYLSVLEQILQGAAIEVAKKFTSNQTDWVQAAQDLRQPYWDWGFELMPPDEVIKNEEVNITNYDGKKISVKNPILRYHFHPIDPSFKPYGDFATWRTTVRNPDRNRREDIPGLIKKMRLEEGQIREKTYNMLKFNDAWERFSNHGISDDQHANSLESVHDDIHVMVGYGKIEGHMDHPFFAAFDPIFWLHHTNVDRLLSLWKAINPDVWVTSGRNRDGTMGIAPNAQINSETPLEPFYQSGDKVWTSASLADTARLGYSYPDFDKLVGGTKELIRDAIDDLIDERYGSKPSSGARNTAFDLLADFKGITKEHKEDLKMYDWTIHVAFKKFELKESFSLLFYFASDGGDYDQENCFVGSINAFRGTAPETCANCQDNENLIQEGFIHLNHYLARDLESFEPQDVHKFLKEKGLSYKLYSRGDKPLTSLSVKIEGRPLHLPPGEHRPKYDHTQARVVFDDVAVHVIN
The assay can be described thus: Inhibition of mushroom tyrosinase assessed as reduction in dopachrome production using L-DOPA as substrate after 5 mins by spectrophotometric analysis.

For assay [1], the target named is T2, Tyrosinase (Agaricus bisporus) (UniProt O42713).
T2 sequence (whole entry): T1 sequence (O42713 whole entry)
Briefly: Competitive inhibition of mushroom tyrosinase assessed as increase in Km for substrate at 0.48 to 1.92 uM using varying levels of L-DOPA as substrate by Lineweaver-Burk plot analysis.

The target in assay [2] is T2, Tyrosinase (Agaricus bisporus). The assay can be described thus: Competitive inhibition of mushroom tyrosinase assessed as Vmax for substrate at 0.48 to 1.92 uM using varying levels of L-DOPA as substrate by Lineweaver-Burk plot analysis.
The subject of a further assay is B16-F10. Briefly: Inhibition of alpha-MSH-stimulated melanogenesis in mouse B16F10 cells assessed as melanin content at 10 uM measured after 48 hrs relative to control. The assay is classed as functional. Particulars: B16-F10, 48 h.
The target of assay [3] is T2, Tyrosinase (Agaricus bisporus). The assay can be described thus: Potency index, ratio of kojic acid IC50 to compound IC50 for inhibition of mushroom tyrosinase using L-DOPA as substrate.

A word on the IC50: it is the concentration that gives 50% inhibition. On to `O=C(c1cccc(C(F)(F)F)c1)N1CCN(Cc2ccc(F)cc2)CC1`, for which the IC50 on Tyrosinase stood at 8430 nM.

On to `O=C(c1ccc(C(F)(F)F)cc1)N1CCN(Cc2ccc(F)cc2)CC1`, for which the IC50 at Tyrosinase is 3380 nM.

Regarding `O=C(c1ccc(O)cc1O)N1CCN(Cc2ccc(F)cc2)CC1`, the IC50 on Tyrosinase was found to be 1490 nM.

For the compound `O=C(c1cccc(Cl)c1)N1CCN(Cc2ccc(F)cc2)CC1`, the IC50 on Tyrosinase was found to be 5300 nM.

For the compound `O=C(c1cccc(Br)c1)N1CCN(Cc2ccc(F)cc2)CC1`, the IC50 on Tyrosinase was 2400 nM.

The term inhibition denotes the drop in the measured response relative to a control, in per cent. On to `O=C(c1ccc([N+](=O)[O-])cc1[N+](=O)[O-])N1CCN(Cc2ccc(F)cc2)CC1`, for which, at Tyrosinase, the IC50 came to 960 nM. Moreover, the inhibition result in assay [1] and in assay [2] was “Active” in each case. Moreover, the inhibition at 10 µM in the assay on B16-F10 came out at 22.8%. Further, in assay [3], the Ratio IC50 came out at 20.

Consider `O=C(c1ccc(Br)cc1)N1CCN(Cc2ccc(F)cc2)CC1`, for which, at Tyrosinase, the IC50 was determined as 4610 nM.

`Nc1cccc(C(=O)N2CCN(Cc3ccc(F)cc3)CC2)c1`: the IC50 on Tyrosinase was found to be 3810 nM.

For `O=C(c1ccccc1Br)N1CCN(Cc2ccc(F)cc2)CC1`, the IC50 on Tyrosinase was 2030 nM.

For `O=C(c1ccc(Br)cc1Br)N1CCN(Cc2ccc(F)cc2)CC1`, the half-inhibitory concentration (IC50) at Tyrosinase amounted to 1050 nM.

With `O=C(c1ccccc1[N+](=O)[O-])N1CCN(Cc2ccc(F)cc2)CC1`, the IC50 at Tyrosinase stood at 870 nM.

As for `O=C(c1ccc(Cl)cc1Cl)N1CCN(Cc2ccc(F)cc2)CC1`, on Tyrosinase, the IC50 was 790 nM.

Consider `O=C(c1ccc(C(F)(F)F)cc1C(F)(F)F)N1CCN(Cc2ccc(F)cc2)CC1`, for which the IC50 on Tyrosinase was found to be 1630 nM.

For the compound `Nc1ccc(C(=O)N2CCN(Cc3ccc(F)cc3)CC2)c(N)c1`, the IC50 at Tyrosinase worked out at 3670 nM.

For the compound `COc1ccc(C(=O)N2CCN(Cc3ccc(F)cc3)CC2)c(OC)c1`, the IC50 at Tyrosinase came out at 1400 nM.

For the compound `O=C(c1ccccc1C(F)(F)F)N1CCN(Cc2ccc(F)cc2)CC1`, the IC50 on Tyrosinase worked out at 480 nM.

As for `Nc1ccc(C(=O)N2CCN(Cc3ccc(F)cc3)CC2)cc1`, on Tyrosinase, the IC50 came out at 14700 nM.

Turning to `O=C(c1ccccc1Cl)N1CCN(Cc2ccc(F)cc2)CC1`, the IC50 at Tyrosinase came out at 3120 nM.

Turning to `Cc1ccc(C(=O)N2CCN(Cc3ccc(F)cc3)CC2)c(C)c1`, on Tyrosinase, the IC50 stood at 3430 nM.

Regarding `O=C(c1ccc(Cl)cc1)N1CCN(Cc2ccc(F)cc2)CC1`, the IC50 on Tyrosinase stood at 3510 nM.

Regarding `O=C(c1ccc([N+](=O)[O-])cc1)N1CCN(Cc2ccc(F)cc2)CC1`, the concentration for half-maximal inhibition (IC50) on Tyrosinase was 2050 nM.

As for `O=C(c1cccc([N+](=O)[O-])c1)N1CCN(Cc2ccc(F)cc2)CC1`, at Tyrosinase, the IC50 came out at 3600 nM.

For `O=C(c1ccc(F)cc1F)N1CCN(Cc2ccc(F)cc2)CC1`, the IC50 on Tyrosinase is 1910 nM.

With `Nc1ccccc1C(=O)N1CCN(Cc2ccc(F)cc2)CC1`, the IC50 at Tyrosinase is 10900 nM.
